Reference: patent publication US12686697B2, “Advantageous morphic form of AT-527 hemi-sulfate salt” (Atea Pharmaceuticals, Inc., priority 2021, dated 2026)
“Also recorded” adds a separate entry of the source. Where a name gives a salt, the structure may show the parent alone.

Legend:
[1] = Stability of 5 kg lot of Form III at 25° C.±2° C., 60% RH±5% RH; assay type: physicochemical; settings: stored at about 25° C. and about 60% RH, three months
Description: Example 6. Stability of 5 kg Lot of Form III at 25° C.±2° C., 60% RH±5% RH
These properties are advantageous for use in clinical trials or clinical use of the compound.

[2] = Stability of 5 kg lot of Form III at 40° C.±2° C., 75% RH±5% RH; assay type: physicochemical; settings: 40° C. and 75% RH, three months
Description: Example 7. Stability of 5 kg Lot of Form III at 40° C.±2° C., 75% RH±5% RH
Further studies on the stability of Compound A Form III were conducted at elevated temperature and humidity. These conditions are less desirable for the storage of active pharmaceutical ingredients and may lead to accelerated degradation.

[3] = Stability of 0.1 kg lot of Form III under ambient conditions (15° C.-25° C., ambient RH); assay type: physicochemical; settings: 12 months / one year
Description: Example 8. Stability of 0.1 kg Lot of Form III
Additional stability studies were performed for smaller lots of Compound A Form III. These studies were performed in stability chambers set to 25° C. and 60% RH, 40° C. and 75% RH for up to 8 weeks. In other embodiments the studies can be performed for up to 4 weeks, for up to 2 weeks and for one week. The stability studies were also performed under ambient conditions, 15-25° C. with no control over the humidity.

[4] = clinical trials; cited from earlier work
[5] = in vivo; cited from earlier work
SARS-CoV-2 = settings: cited from earlier work
HCV = settings: non-cirrhotic and cirrhotic HCV-infected patients, single and multiple doses; cited from earlier work

| SMILES | Absorption of water from the atmosphere upon storage [1] | Degradation measured by HPLC-UV [1] | Degradation (decrease in purity, generation of impurities) [2] | Decrease in purity [3] | Drug related serious adverse events [4] | Tissue concentration [5] | Potency against SARS-CoV-2 (SARS-CoV-2) | Antiviral reduction in HCV-infected cohorts (HCV) |
| --- | --- | --- | --- | --- | --- | --- | --- | --- |
| CNc1nc(N)nc2c1ncn2[C@@H]1O[C@H](CO[P@@](=O)(N[C@@H](C)C(=O)OC(C)C)Oc2ccccc2)[C@@H](O)[C@@]1(C)F [Compound A Form III, hemi-sulfate salt of isopropyl ((S)-(((2R,3R,4R,5R)-5-(2-amino-6-(methylamino)-9H-purin-9-yl)-4-fluoro-3-hydroxy-4-methyltetrahydrofuran-2-yl)methoxy)(phenoxy)phosphoryl)-L-alaninate] | does not appreciably absorb water | no measurable degradation | no measurable decrease in purity or generation of impurities; also recorded: no measurable degradation | little or no decrease; also recorded: no measurable decrease in purity | – | – | – | – |
| CNc1nc(N)nc2c1ncn2[C@@H]1O[C@H](CO[P@@](=O)(N[C@@H](C)C(=O)OC(C)C)Oc2ccccc2)[C@@H](O)[C@@]1(C)F [Compound A, hemi-sulfate salt of isopropyl ((S)-(((2R,3R,4R,5R)-5-(2-amino-6-(methylamino)-9H-purin-9-yl)-4-fluoro-3-hydroxy-4-methyltetrahydrofuran-2-yl)methoxy)(phenoxy)phosphoryl)-L-alaninate] | – | – | – | – | no drug related serious adverse events observed | disproportionately concentrate in the lung and the liver | potent | significant antiviral reduction |
